pEC50: −log10 of the molar value.
Legend:
[1] = target: T1, ABL (Homo sapiens, UniProt P00519); experiment: In vitro kinase assay (Z′-LYTE); type: biochemical; settings: read-out: % of inhibition of the kinase compared to the control
T1 construct: purchased Invitrogen

[2] = target: T2, ABL T315I (Homo sapiens, UniProt P00519, T315I); experiment: In vitro kinase assay (Z′-LYTE); type: biochemical; settings: read-out: % of inhibition of the kinase compared to the control
T2 construct: purchased Invitrogen
Outline: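 Peptide/kinase mix combined with ATP (apparent Km) in 50 mM HEPES pH 7.5, 10 mM MgCl2, 1 mM EGTA, 0.01% BRIJ-35; compound present at 100 nM, except 10 μM for ABL T315I; DMSO 1% final. Protease development, then FRET emission ratio.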

[3] = target: T3, BRAF (Homo sapiens, UniProt P15056); experiment: In vitro kinase assay (Z′-LYTE); type: biochemical; settings: compound 100 nM; ATP 100 μM; read-out: % of inhibition of the kinase compared to the control
T3 construct: purchased Invitrogen
T3 sequence (P15056 whole entry): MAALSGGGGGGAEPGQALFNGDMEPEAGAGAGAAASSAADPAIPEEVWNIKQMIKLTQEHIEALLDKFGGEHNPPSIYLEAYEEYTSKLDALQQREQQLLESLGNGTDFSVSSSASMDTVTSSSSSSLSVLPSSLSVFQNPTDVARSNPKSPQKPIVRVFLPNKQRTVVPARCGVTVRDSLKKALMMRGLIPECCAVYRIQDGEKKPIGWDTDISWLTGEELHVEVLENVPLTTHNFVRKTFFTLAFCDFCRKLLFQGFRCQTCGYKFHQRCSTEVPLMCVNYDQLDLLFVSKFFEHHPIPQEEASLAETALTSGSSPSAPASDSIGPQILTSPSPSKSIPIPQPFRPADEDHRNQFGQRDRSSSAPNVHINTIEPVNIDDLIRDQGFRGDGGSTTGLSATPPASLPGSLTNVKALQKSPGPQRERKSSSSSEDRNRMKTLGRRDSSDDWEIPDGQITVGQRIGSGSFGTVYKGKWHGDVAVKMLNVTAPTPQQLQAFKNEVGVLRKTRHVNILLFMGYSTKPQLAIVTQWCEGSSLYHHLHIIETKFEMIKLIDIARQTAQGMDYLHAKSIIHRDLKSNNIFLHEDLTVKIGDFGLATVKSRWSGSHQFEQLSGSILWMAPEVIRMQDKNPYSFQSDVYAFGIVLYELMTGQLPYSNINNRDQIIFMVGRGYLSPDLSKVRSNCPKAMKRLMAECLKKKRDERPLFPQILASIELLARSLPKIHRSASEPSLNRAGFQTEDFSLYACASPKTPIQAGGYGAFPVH
Outline: (§1)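 Inhibition measured at a single dose, 100 nM, or 10 μM for ABL T315I. Z′-LYTE format with ATP at apparent Km; emission ratio of donor to acceptor quantifies phosphorylation.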

[4] = target: T4, EGFR (ErbB1) (Homo sapiens, UniProt P00533); experiment: In vitro kinase assay (Z′-LYTE); type: biochemical; settings: read-out: % of inhibition of the kinase compared to the control
T4 construct: purchased Invitrogen
Outline: as §1

[5] = target: T5, EGFR (ErbB1) T790M L858R (Homo sapiens, UniProt P00533, L858R/T790M); experiment: In vitro kinase assay (Z′-LYTE); type: biochemical; settings: read-out: % of inhibition of the kinase compared to the control
T5 construct: purchased Invitrogen
T5 sequence (P00533 25-1210 T790M/L858R): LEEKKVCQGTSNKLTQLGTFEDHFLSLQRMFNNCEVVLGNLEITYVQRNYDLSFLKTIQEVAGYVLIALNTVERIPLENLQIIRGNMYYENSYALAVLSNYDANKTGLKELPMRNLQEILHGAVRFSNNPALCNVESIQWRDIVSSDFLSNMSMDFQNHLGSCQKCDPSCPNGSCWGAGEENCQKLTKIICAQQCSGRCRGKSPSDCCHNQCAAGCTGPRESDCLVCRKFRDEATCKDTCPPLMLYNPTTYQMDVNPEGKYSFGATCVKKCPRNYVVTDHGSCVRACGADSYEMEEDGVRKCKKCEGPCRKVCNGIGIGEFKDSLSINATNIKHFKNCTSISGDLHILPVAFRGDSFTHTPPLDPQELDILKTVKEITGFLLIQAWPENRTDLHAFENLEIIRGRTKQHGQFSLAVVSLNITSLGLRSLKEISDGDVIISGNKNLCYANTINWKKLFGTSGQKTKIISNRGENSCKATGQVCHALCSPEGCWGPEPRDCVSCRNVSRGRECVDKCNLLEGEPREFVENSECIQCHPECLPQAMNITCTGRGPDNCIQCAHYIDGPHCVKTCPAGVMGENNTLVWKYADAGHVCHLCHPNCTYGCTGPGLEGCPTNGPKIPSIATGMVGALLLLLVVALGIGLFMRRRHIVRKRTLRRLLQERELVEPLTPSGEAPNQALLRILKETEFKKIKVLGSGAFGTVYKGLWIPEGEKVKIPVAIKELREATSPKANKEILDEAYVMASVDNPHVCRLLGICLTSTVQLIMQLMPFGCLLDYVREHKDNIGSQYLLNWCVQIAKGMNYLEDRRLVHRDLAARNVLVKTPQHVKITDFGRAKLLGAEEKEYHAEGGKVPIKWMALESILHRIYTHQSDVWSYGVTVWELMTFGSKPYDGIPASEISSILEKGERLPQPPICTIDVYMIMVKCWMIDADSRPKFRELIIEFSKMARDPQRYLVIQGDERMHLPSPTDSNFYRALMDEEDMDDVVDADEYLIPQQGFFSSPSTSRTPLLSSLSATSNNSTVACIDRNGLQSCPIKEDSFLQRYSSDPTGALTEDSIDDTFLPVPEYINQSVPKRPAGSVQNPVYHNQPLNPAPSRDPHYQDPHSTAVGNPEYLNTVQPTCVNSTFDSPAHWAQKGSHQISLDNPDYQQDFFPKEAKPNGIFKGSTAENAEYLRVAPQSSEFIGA
Outline: as §1

[6] = target: T6, FGFR1 (Homo sapiens, UniProt P11362); experiment: In vitro kinase assay (Z′-LYTE); type: biochemical; settings: read-out: % of inhibition of the kinase compared to the control
T6 construct: purchased Invitrogen
Outline: as §1

[7] = target: T7, FGFR2 (Homo sapiens, UniProt P21802); experiment: In vitro kinase assay (Z′-LYTE); type: biochemical; settings: read-out: % of inhibition of the kinase compared to the control
T7 construct: purchased Invitrogen
T7 sequence (P21802 22-821): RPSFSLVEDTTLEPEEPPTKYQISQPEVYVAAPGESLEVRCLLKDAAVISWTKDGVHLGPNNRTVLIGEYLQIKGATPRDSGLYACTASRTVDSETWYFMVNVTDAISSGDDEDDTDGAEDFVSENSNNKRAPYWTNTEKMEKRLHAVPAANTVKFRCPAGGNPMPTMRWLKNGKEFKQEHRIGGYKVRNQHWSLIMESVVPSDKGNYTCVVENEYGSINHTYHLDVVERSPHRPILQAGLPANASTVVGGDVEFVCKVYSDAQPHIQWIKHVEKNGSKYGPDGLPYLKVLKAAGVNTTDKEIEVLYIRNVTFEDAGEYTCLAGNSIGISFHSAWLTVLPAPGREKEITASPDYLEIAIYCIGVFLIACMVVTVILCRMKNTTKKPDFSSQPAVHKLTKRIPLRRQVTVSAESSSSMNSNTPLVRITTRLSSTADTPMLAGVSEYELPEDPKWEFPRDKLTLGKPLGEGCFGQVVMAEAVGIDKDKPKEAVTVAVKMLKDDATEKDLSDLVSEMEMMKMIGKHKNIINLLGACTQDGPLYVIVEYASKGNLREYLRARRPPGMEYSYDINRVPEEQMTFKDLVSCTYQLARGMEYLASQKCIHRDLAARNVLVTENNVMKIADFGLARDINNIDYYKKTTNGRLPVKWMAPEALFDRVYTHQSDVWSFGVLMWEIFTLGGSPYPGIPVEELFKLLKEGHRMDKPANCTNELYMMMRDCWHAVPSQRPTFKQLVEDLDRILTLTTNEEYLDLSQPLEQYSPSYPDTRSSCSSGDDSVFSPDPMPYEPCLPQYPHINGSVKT
Outline: as §1

[8] = target: T8, KDR (VEGFR2) (Homo sapiens, UniProt P35968); experiment: In vitro kinase assay (Z′-LYTE); type: biochemical; settings: read-out: % of inhibition of the kinase compared to the control
T8 construct: purchased Invitrogen
Outline: as §1

[9] = target: T9, PDGFRA (PDGFR alpha) (Homo sapiens, UniProt P16234); experiment: In vitro kinase assay (Z′-LYTE); type: biochemical; settings: read-out: % of inhibition of the kinase compared to the control
T9 construct: purchased Invitrogen
T9 sequence (P16234 24-1089): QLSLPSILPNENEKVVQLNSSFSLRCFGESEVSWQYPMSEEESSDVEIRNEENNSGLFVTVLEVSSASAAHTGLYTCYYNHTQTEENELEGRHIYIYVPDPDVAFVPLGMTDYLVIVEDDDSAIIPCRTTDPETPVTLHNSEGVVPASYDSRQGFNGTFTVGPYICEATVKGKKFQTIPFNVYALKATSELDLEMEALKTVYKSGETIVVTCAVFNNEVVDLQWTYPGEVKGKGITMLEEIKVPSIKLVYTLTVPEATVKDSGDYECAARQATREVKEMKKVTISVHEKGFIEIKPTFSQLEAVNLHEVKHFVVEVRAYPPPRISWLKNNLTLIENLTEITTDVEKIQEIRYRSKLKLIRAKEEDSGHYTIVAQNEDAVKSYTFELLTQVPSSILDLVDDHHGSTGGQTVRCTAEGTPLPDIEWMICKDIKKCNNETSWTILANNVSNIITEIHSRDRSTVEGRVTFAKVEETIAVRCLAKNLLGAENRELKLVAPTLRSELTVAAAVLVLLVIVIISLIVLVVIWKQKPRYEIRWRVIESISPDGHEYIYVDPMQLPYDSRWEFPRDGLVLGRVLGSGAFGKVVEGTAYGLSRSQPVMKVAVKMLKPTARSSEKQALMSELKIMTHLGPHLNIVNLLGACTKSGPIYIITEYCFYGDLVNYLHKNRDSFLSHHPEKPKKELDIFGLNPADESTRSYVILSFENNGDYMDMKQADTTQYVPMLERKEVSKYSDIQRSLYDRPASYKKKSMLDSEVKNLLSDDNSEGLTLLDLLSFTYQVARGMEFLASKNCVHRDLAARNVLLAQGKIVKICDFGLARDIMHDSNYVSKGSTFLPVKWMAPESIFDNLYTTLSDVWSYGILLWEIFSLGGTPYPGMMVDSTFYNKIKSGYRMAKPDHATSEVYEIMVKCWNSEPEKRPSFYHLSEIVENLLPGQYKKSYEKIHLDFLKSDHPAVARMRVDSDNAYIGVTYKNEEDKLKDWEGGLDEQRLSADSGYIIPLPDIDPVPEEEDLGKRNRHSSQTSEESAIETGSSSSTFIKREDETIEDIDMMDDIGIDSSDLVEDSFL
Outline: as §1

[10] = target: T10, PDGFRB (Homo sapiens, UniProt P09619); experiment: In vitro kinase assay (Z′-LYTE); type: biochemical; settings: read-out: % of inhibition of the kinase compared to the control
T10 construct: purchased Invitrogen
T10 sequence (P09619 33-1106): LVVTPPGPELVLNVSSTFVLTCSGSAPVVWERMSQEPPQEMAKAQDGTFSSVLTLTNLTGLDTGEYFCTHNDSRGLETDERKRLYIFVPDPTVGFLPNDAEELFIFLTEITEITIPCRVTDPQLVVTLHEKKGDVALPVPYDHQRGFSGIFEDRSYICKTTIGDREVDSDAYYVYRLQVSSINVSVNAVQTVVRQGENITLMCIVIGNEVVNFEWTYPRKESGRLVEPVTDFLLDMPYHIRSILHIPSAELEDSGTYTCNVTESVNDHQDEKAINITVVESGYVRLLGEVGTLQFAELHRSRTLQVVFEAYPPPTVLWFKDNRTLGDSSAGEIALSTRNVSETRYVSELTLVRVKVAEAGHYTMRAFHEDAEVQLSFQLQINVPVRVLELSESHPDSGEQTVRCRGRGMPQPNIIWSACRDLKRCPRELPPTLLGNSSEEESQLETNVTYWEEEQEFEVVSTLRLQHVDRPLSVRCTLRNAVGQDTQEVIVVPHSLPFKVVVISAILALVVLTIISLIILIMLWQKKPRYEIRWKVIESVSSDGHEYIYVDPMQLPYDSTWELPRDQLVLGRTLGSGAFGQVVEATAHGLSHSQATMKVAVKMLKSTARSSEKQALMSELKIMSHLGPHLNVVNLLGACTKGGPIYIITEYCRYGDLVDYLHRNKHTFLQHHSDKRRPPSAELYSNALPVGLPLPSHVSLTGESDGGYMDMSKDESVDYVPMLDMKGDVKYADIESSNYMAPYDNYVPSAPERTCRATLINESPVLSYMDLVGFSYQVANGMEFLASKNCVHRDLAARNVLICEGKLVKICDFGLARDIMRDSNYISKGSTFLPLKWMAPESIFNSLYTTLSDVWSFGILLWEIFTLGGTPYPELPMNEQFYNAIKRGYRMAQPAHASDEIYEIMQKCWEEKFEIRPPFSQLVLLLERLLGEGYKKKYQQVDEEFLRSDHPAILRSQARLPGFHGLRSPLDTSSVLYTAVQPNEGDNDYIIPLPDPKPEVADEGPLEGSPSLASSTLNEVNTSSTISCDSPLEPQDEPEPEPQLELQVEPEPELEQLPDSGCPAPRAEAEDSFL
Outline: as §1

[11] = target: T11, SRC (Homo sapiens, UniProt P12931); experiment: In vitro kinase assay (Z′-LYTE); type: biochemical; settings: read-out: % of inhibition of the kinase compared to the control
T11 construct: purchased Invitrogen
Outline: as §1

[12] = target: T12, VEGFR1 (Homo sapiens, UniProt P17948); experiment: In vitro kinase assay (Z′-LYTE); type: biochemical; settings: read-out: % of inhibition of the kinase compared to the control
T12 construct: purchased Invitrogen
Outline: as §1

[13] = tested on: A549; experiment: In vitro cell proliferation assay (MTT); type: cell-based; settings: Homo sapiens, A549, 72 h
Outline: (§2)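 Growth is assessed with the tetrazolium dye MTT following a 72 hr incubation with compound spanning 10 nM up to 3 μM, each dose tested twice on 5×10^3 plated cells per well.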

[14] = tested on: BxPC-3; experiment: In vitro cell proliferation assay (MTT); type: cell-based; settings: Homo sapiens, BXPC-3, 72 h
Outline: as §2

[15] = tested on: H1975; experiment: In vitro cell proliferation assay (MTT); type: cell-based; settings: Homo sapiens, NCI-H1975, 72 h
Outline: as §2

[16] = tested on: HT29; experiment: In vitro cell proliferation assay (MTT); type: cell-based; settings: Homo sapiens, HT-29, 72 h
Outline: as §2

[17] = tested on: HUVEC; experiment: In vitro cell proliferation assay (MTT); type: cell-based; settings: Homo sapiens, 72 h
Description: Cancer cell lines (5×10^3 cells per well) or HUVEC (1×10^4 cells per well) or HRMEC (1×10^4 cells per well) were distributed in 96-well plates and incubating in duplicate with escalating concentrations (10 nM to 3 μM) of compounds for 72 hr. Cell proliferation was measured using MTT (3 [4,5-dimethylthiazol-2-yl]-2,5-diphenyltetrazolium bromide).

[18] = tested on: HeLa; experiment: In vitro cell proliferation assay (MTT); type: cell-based; settings: Homo sapiens, 72 h
Outline: as §2

[19] = tested on: HepG2; experiment: In vitro cell proliferation assay (MTT); type: cell-based; settings: Homo sapiens, HepG2, 72 h
Outline: as §2

[20] = tested on: MDA-MB-231; experiment: In vitro cell proliferation assay (MTT); type: cell-based; settings: Homo sapiens, MDA-MB-231, 72 h
Outline: as §2

[21] = tested on: PC-3; experiment: In vitro cell proliferation assay (MTT); type: cell-based; settings: Homo sapiens, PC-3, 72 h
Outline: as §2

[22] = tested on: HuCCT1; experiment: In vitro cell proliferation assay (MTT); type: cell-based; settings: Homo sapiens, HuCCT-1, 72 h
Outline: as §2

[23] = tested on: HuH6 Clone 5; experiment: In vitro cell proliferation assay (MTT); type: cell-based; settings: HUH-6-clone5, 72 h
Outline: as §2

[24] = tested on: HuH7; experiment: In vitro cell proliferation assay (MTT); type: cell-based; settings: Homo sapiens, Huh-7, 72 h
Outline: as §2

Compound | inhibition at 10 µM [1] [%] | inhibition at 10 µM [2] [%] | inhibition at 0.1 µM [3] [%] | inhibition at 0.1 µM [4] [%] | inhibition at 0.1 µM [5] [%] | inhibition at 0.1 µM [6] [%] | inhibition at 0.1 µM [7] [%] | inhibition at 0.1 µM [8] [%] | inhibition at 0.1 µM [9] [%] | inhibition at 0.1 µM [10] [%] | inhibition at 0.1 µM [11] [%] | inhibition at 0.1 µM [12] [%] | pEC50 [13] | pEC50 [14] | pEC50 [15] | pEC50 [16] | pEC50 [19] | pEC50 [20] | pEC50 [21] | pEC50 [17] | other results
CNC(=O)c1cc(Oc2ccc(NC(=O)Nc3ccc(Cl)c(C(F)(F)F)c3)cc2)ccn1 [Sorafenib, reference compound] |  |  |  |  |  |  |  |  |  |  |  |  |  |  |  |  | ≤ 6.00 |  |  | 6.00 to 7.00 | pEC50 [22]: ≤ 6.00; pEC50 [23]: ≤ 6.00; pEC50 [24]: ≤ 6.00
COC(=O)c1cc2cc(NCc3cc(NC(=O)c4cccc(C(C)C)c4)ccc3C)cnc2[nH]1 [OR0610] | ≥ 50 | ≥ 50 | < 50 | ≥ 50 | < 50 | < 50 | < 50 | < 50 | ≥ 50 | < 50 | ≥ 50 | < 50 | 6.00 to 7.00 | 6.00 to 7.00 | 6.00 to 7.00 | 6.00 to 7.00 | 6.00 to 7.00 | ≥ 7.00 | ≤ 6.00 | ≥ 7.00 | 
COC(=O)c1cc2cc(NCc3cc(NC(=O)c4ccc(Cn5cnc(C)c5)c(C(F)(F)F)c4)ccc3C)cnc2[nH]1 [OR0639] | ≥ 50 | ≥ 50 | ≥ 50 | ≥ 50 | < 50 | < 50 | < 50 | ≥ 50 | ≥ 50 | < 50 | < 50 | < 50 | 6.00 to 7.00 | 6.00 to 7.00 | ≤ 6.00 | 6.00 to 7.00 | 6.00 to 7.00 | 6.00 to 7.00 | ≤ 6.00 | 6.00 to 7.00 | pEC50 [22]: ≤ 6.00

More lines, main results first:

inhibition at 10 µM [1] [%] | inhibition at 10 µM [2] [%] | inhibition at 0.1 µM [3] [%] | inhibition at 0.1 µM [4] [%] | inhibition at 0.1 µM [5] [%] | inhibition at 0.1 µM [6] [%] | inhibition at 0.1 µM [7] [%] | inhibition at 0.1 µM [8] [%] | inhibition at 0.1 µM [9] [%] | inhibition at 0.1 µM [10] [%] | inhibition at 0.1 µM [11] [%] | inhibition at 0.1 µM [12] [%] | pEC50 [13] | pEC50 [14] | pEC50 [15] | pEC50 [16] | pEC50 [19] | pEC50 [20] | pEC50 [21] | Compound | pEC50 [17] | other results
≥ 50 | ≥ 50 | < 50 | ≥ 50 | < 50 | < 50 | < 50 | < 50 | ≥ 50 | < 50 | ≥ 50 | < 50 | 6.00 to 7.00 | 6.00 to 7.00 | 6.00 to 7.00 | 6.00 to 7.00 | ≥ 7.00 | ≥ 7.00 | ≤ 6.00 | COC(=O)c1cc2cc(NCc3cc(NC(=O)c4cccc(C(F)(F)F)c4)ccc3C)cnc2[nH]1 [OR0606] | ≥ 7.00 | pEC50 [18]: ≤ 6.00
≥ 50 | < 50 | < 50 | ≥ 50 | < 50 | < 50 | < 50 | < 50 | ≥ 50 | < 50 | ≥ 50 | < 50 | 6.00 to 7.00 | 6.00 to 7.00 | ≤ 6.00 | 6.00 to 7.00 | 6.00 to 7.00 | 6.00 to 7.00 | ≤ 6.00 | COC(=O)c1cc2cc(NCc3cc(NC(=O)c4ccc(CN5CCC(O)CC5)c(C(F)(F)F)c4)ccc3C)cnc2[nH]1 [OR0636] | 6.00 to 7.00 | pEC50 [22]: ≤ 6.00
≥ 50 | ≥ 50 | < 50 | < 50 | < 50 | < 50 | < 50 | < 50 | < 50 | < 50 | ≥ 50 | < 50 | 6.00 to 7.00 | 6.00 to 7.00 | 6.00 to 7.00 | 6.00 to 7.00 | ≥ 7.00 | ≥ 7.00 | ≤ 6.00 | COC(=O)c1cc2cc(NCc3cc(NC(=O)c4cc(N(C)C)cc(C(F)(F)F)c4)ccc3C)cnc2[nH]1 [OR0597] | 6.00 to 7.00 | 
